Source: ChEMBL document CHEMBL2364262, “Structure-activity relationship data for chemical series of agonists of the motilin receptor (Supplementary Bioactivity Data for publication CHEMBL1141008)”

Target: Motilin receptor (Homo sapiens, UniProt O43193)
Assay: SUPPLEMENTARY: Agonist activity at human recombinant motilin receptor expressed in CHO cells by calcium mobilization-based FLIPR assay. Same assay as CHEMBL942680
Format: functional, cell-based

Chain of Motilin receptor (O43193 whole entry): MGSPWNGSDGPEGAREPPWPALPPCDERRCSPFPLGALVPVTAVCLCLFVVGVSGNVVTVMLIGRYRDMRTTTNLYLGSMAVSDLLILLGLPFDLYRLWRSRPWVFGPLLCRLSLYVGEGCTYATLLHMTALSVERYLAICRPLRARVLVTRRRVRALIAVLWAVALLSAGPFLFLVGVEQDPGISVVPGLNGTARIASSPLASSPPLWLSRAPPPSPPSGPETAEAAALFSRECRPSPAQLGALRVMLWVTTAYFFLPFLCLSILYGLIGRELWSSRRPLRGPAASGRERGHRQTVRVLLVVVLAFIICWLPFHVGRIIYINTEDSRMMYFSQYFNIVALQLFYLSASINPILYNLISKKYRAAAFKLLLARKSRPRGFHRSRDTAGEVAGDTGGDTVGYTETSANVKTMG

C[C@H]1CN(Cc2ccc(N(C)C(=O)c3ccc(-c4ccc(F)cc4)cn3)cc2)CCN1 and C[C@H]1CN(Cc2ccc(N(C)C(=O)c3ccc(-c4cccc(F)c4)cn3)cc2)CCN1 are the same in EC50: 7.94 nM for the first, 7.94 nM for the second.

First: CC(C(=O)N1CCC(Nc2cccc(F)c2)CC1)c1ccc(CN2C[C@@H](C)N[C@@H](C)C2)cc1 (stereo partly specified)
Second: C[C@@H]1CN(Cc2ccc(C(C)(C)C(=O)N3CCC(Nc4cccc(F)c4)CC3)cc2)C[C@H](C)N1
The EC50 of the first is 1.6-fold lower: 15.8 nM for the first, 25.1 nM for the second. The first is the more potent here.

First: C[C@@H]1CN(Cc2ccc(CC(=O)N3CCC(Nc4ccc(C#N)cc4)CC3)cc2)CCN1
Second: C[C@H]1CN(Cc2ccc(CC(=O)N3CCC(Nc4ccc(C#N)cc4)CC3)cc2)CCN1
The EC50 of the first is 2-fold lower: 15.8 nM for the first, 31.6 nM for the second.

First: C[C@H]1CN(Cc2ccc(N(C)C(=O)c3ccc(-c4ccc(F)cc4)cc3)cc2)CCN1
Second: C[C@H]1CN(Cc2ccc(N(C)C(=O)c3ccc(-c4ccc(F)cc4)nc3)cc2)CCN1
The EC50 of the first is 25-fold higher: 39.8 nM for the first, 1.58 nM for the second. The second is the more potent here.

Compared with C[C@H]1CN(Cc2ccc(N(C)C(=O)c3ccc(-c4cccc(F)c4)nc3)c(F)c2)CCN1, C[C@H]1CN(Cc2ccc(N(C)C(=O)c3ccc(-c4cccc(F)c4)nc3)cc2F)CCN1 is 5-fold lower in EC50: 6.31 nM for the first, 1.26 nM for the second.

Going from C[C@H]1CN(Cc2ccc(N(C)C(=O)c3ccc(Oc4ccccc4F)nc3)cc2)CCN1 to C[C@H]1CN(Cc2ccc(N(C)C(=O)c3ccc(-c4ccccc4F)nc3)cc2)CCN1, the EC50 falls from 7.94 nM to 5.01 nM (1.6-fold).

Going from Cc1nc(-c2cccc(F)c2)ccc1C(=O)N(C)c1ccc(CN2CCN[C@@H](C)C2)cc1 to Cc1nc(-c2cccc(C#N)c2)ccc1C(=O)N(C)c1ccc(CN2CCN[C@@H](C)C2)cc1, the EC50 rises from 0.631 nM to 1.58 nM (2.5-fold). The first is the more potent here.

Going from Cc1cc(N(C)C(=O)c2ccc(-c3cccc(F)c3)nc2)ccc1CN1CCN[C@@H](C)C1 to C[C@H]1CN(Cc2ccc(N(C)C(=O)c3ccc(-c4cccc(F)c4)nc3)cc2)CCN1, the EC50 rises from 0.251 nM to 1.26 nM (5-fold). The first is the more potent here.

First: C[C@H]1CN(Cc2ccc(CC(=O)N3CCC(Nc4cccc(C(F)(F)F)c4)CC3)cc2)CCN1
Second: C[C@@H]1CN(Cc2ccc(CC(=O)N3CCC(Nc4cccc(C(F)(F)F)c4)CC3)cc2)CCN1
The EC50 of the first is 2.5-fold higher: 6.31 nM for the first, 2.51 nM for the second.

Compared with C[C@@H]1CN(Cc2ccc(NS(=O)(=O)c3ccc(-c4ccc(F)cc4)nc3)cc2)C[C@H](C)N1, C[C@@H]1CN(Cc2ccc(N(C)C(=O)c3ccc(-c4ccc(F)cc4)nc3)cc2)C[C@H](C)N1 is 79-fold lower in EC50: 158 nM for the first, 2 nM for the second. The second is the more potent here.

Going from C[C@H]1CN(Cc2ccc(CC(=O)N3CCC(Nc4cccc(F)c4)CC3)cc2Cl)CCN1 to COc1cc(CC(=O)N2CCC(Nc3cccc(F)c3)CC2)ccc1CN1CCN[C@@H](C)C1, the EC50 rises from 5.01 nM to 25.1 nM (5-fold). The first is the more potent here.

C[C@H]1CN(Cc2ccc(NS(=O)(=O)c3ccc(N4CCCCC4)nc3)cc2)CCN1 and C[C@H]1CN(Cc2ccc(N(C)C(=O)c3ccc(N4CCC(F)CC4)nc3)cc2)CCN1 are within 1.5-fold of each other in EC50: 100 nM for the first, 79.4 nM for the second.

C[C@@H]1CN(Cc2ccc(-c3cccnc3S(=O)(=O)N3CCC(Nc4ccccc4F)CC3)cc2F)C[C@H](C)N1 and C[C@@H]1CN(Cc2ccc(-c3cccnc3N3CCC(Nc4ccc(F)cc4)CC3)s2)C[C@H](C)N1 are within 1.5-fold of each other in EC50: 20 nM for the first, 25.1 nM for the second.

First: C[C@@H]1CN(Cc2ccc(CC(=O)N3CCC(Nc4cccc(C#N)c4)CC3)cc2)CCN1
Second: C[C@@H]1CN(Cc2ccc(CC(=O)N3CCC(Nc4ccc(F)c(F)c4)CC3)cc2)CCN1
The EC50 of the first is 4-fold lower: 3.16 nM for the first, 12.6 nM for the second.

C[C@H]1CN(Cc2ccc(CC(=O)N3CCC(Nc4ccc(C(F)(F)F)cc4)CC3)cc2)CCN1 and C[C@H]1CN(Cc2ccc(CC(=O)N3CCC(Nc4ccc(F)c(F)c4)CC3)cc2)CCN1 are within 1.5-fold of each other in EC50: 10 nM for the first, 7.94 nM for the second.

Compared with Cc1nc(-c2ccc(F)cc2)ccc1C(=O)N(C)c1ccc(CN2C[C@@H](C)N[C@@H](C)C2)cc1, Cc1nc(-c2ccc(F)cc2)ncc1C(=O)N(C)c1ccc(CN2CCN[C@@H](C)C2)cc1 is 4-fold higher in EC50: 0.398 nM for the first, 1.58 nM for the second. The first is the more potent here.

First: C[C@@H]1CN(Cc2ccn(-c3cccnc3N3CCC(Oc4cccc(F)c4)CC3)n2)C[C@H](C)N1
Second: C[C@@H]1CN(Cc2ccn(-c3cccnc3N3CCC(Oc4ccc(F)cc4)CC3)n2)C[C@H](C)N1
The EC50 of the first is 2-fold higher: 2.51 nM for the first, 1.26 nM for the second.

First: CCN(C(=O)c1ccc(-c2cccc(F)c2)nc1)c1ccc(CN2CCN[C@@H](C)C2)cc1
Second: COCCN(C(=O)c1ccc(-c2cccc(F)c2)nc1)c1ccc(CN2CCN[C@@H](C)C2)cc1
The EC50 of the first is 20-fold lower: 0.794 nM for the first, 15.8 nM for the second. The first is the more potent here.

First: C[C@H]1CN(Cc2ccc(N(C)C(=O)c3ccc(Oc4ccccc4F)cc3)cc2)CCN1
Second: C[C@H]1CN(Cc2ccc(N(C)C(=O)c3ccc(Oc4cccc(F)c4)cc3)cc2)CCN1
The EC50 of the first is 2-fold higher: 5.01 nM for the first, 2.51 nM for the second. The second is the more potent here.

Compared with C[C@@H]1CN(Cc2ccc(CC(=O)N3CCC(Oc4cccc(F)c4)CC3)cc2)CCN1, C[C@H]1CN(Cc2ccc(CC(=O)N3CCC(Oc4cccc(F)c4)CC3)cc2)CCN1 is 1.6-fold higher in EC50: 15.8 nM for the first, 25.1 nM for the second.

First: COCCN(C(=O)c1ccc(Oc2ccc(F)cc2)nc1)c1ccc(CN2CCN[C@@H](C)C2)cc1
Second: CCN(C(=O)c1ccc(Oc2ccc(F)cc2)nc1)c1ccc(CN2CCN[C@@H](C)C2)cc1
The EC50 of the first is 40-fold higher: 15.8 nM for the first, 0.398 nM for the second.

Going from CC(C)N(C(=O)c1ccc(-c2cccc(F)c2)nc1)c1ccc(CN2CCN[C@@H](C)C2)cc1 to C[C@H]1CN(Cc2ccc(N(C)C(=O)c3ccc(-c4cccc(C#N)c4)nc3)cc2)CCN1, the EC50 falls from 12.6 nM to 7.94 nM (1.6-fold).

Going from C[C@H]1CN(Cc2ccc(N(C)C(=O)C3CCN(Cc4ccc(F)cc4)CC3)cc2)CCN1 to C[C@H]1CN(Cc2ccc(N(C)C(=O)C3CCN(Cc4ccc(C#N)cc4)CC3)cc2)CCN1, the EC50 rises from 7.94 nM to 63.1 nM (7.9-fold).

Compared with C[C@H]1CN(Cc2ccc(N(C)C(=O)c3cnc(-c4ccc(F)cc4)nc3)cc2)CCN1, C[C@H]1CN(Cc2ccc(N(C)C(=O)c3ccc(Oc4ccc(F)cc4)nc3)nc2)CCN1 is 6.3-fold higher in EC50: 5.01 nM for the first, 31.6 nM for the second. The first is the more potent here.

C[C@H]1CN(Cc2ccc(N(C)C(=O)c3ccc(Oc4ccc(F)cc4)nc3)cc2Cl)CCN1 and Cc1cc(N(C)C(=O)c2ccc(Oc3ccc(F)cc3)nc2)ccc1CN1CCN[C@@H](C)C1 are within 1.5-fold of each other in EC50: 0.316 nM for the first, 0.251 nM for the second.

First: C[C@H]1CN(Cc2ccc(N(C)C(=O)c3ccc(-c4cccc(C#N)c4)cn3)cc2)CCN1
Second: COc1cccc(-c2ccc(C(=O)N(C)c3ccc(CN4CCN[C@@H](C)C4)cc3)nc2)c1
The EC50 of the first is 5-fold higher: 39.8 nM for the first, 7.94 nM for the second.

First: C[C@H]1CN(Cc2ccc(N(C)C(=O)c3ccc(Oc4ccc(F)cc4)nc3)c(F)c2)CCN1
Second: Cc1cc(N(C)C(=O)c2ccc(Oc3ccc(F)cc3)nc2)ncc1CN1CCN[C@@H](C)C1
The EC50 of the first is 1.6-fold higher: 3.16 nM for the first, 2 nM for the second. The second is the more potent here.

Compared with C[C@H]1CN(Cc2ccc(N(C)C(=O)c3ccc(C(=O)c4ccc(C(F)(F)F)cc4)cc3)cc2)CCN1, C[C@H]1CN(Cc2ccc(N(C)C(=O)c3ccc(Oc4cccc(C#N)c4)nc3)cc2)CCN1 is 6.3-fold lower in EC50: 20 nM for the first, 3.16 nM for the second. The second is the more potent here.

First: C[C@@H]1CN(Cc2ccc(CC(=O)N3CCC(Oc4ccc(F)cc4)CC3)cc2)CCN1
Second: C[C@H]1CN(Cc2ccc(CC(=O)N3CCC(Oc4ccc(F)cc4)CC3)cc2)CCN1
The EC50 of the first is 1.6-fold lower: 12.6 nM for the first, 20 nM for the second.

Going from C[C@H]1CN(Cc2ccc(N(C)C(=O)c3ccc(Oc4cccc(C#N)c4)cn3)cc2)CCN1 to C[C@H]1CN(Cc2ccc(N(C)C(=O)c3ccc(Oc4cccc(F)c4)cn3)cc2)CCN1, the EC50 falls from 2 nM to 1 nM (2-fold). The second is the more potent here.

Going from C[C@H]1CN(Cc2ccc(N(C)C(=O)C3CCN(Cc4cccc(F)c4)CC3)cc2)CCN1 to C[C@H]1CN(Cc2ccc(N(C)C(=O)C3CCN(Cc4cccc(C#N)c4)CC3)cc2)CCN1, the EC50 rises from 5.01 nM to 39.8 nM (7.9-fold). The first is the more potent here.

Going from Cc1cc(NS(=O)(=O)c2cncc(-c3ccc(F)cc3)c2)ccc1CN1CCN[C@@H](C)C1 to Cc1cc(NS(=O)(=O)c2ccc(-c3ccc(F)cc3)nc2)ccc1CN1CCN[C@@H](C)C1, the EC50 falls from 20 nM to 1.58 nM (13-fold).

First: C[C@H]1CN(Cc2ccc(NS(=O)(=O)c3ccc(-c4ccc(F)cc4)nc3)cc2C(F)(F)F)CCN1
Second: C[C@H]1CN(Cc2ccc(-c3cccnc3C(=O)N3CCC(Nc4ccc(F)cc4)CC3)cc2)CCN1
The EC50 of the first is 1.6-fold higher: 1.58 nM for the first, 1 nM for the second.

Compared with C[C@H]1CN(Cc2ccn(-c3cccnc3N3CCC(Oc4cccc(F)c4)CC3)n2)CCN1, C[C@@H]1CN(Cc2ccn(-c3cccnc3N3CCC(Oc4ccccc4F)CC3)n2)C[C@H](C)N1 is 7.9-fold higher in EC50: 0.794 nM for the first, 6.31 nM for the second. The first is the more potent here.

Going from C[C@@H]1CN(Cc2ccc(CCC(=O)N3CCC(Nc4cccc(F)c4)CC3)cc2)C[C@H](C)N1 to C[C@@H]1CN(Cc2ccn(-c3cccnc3N3CCC(Nc4ccc(F)cc4)CC3)n2)C[C@H](C)N1, the EC50 falls from 39.8 nM to 2 nM (20-fold). The second is the more potent here.

In the case of C[C@@H]1CN(Cc2ccc(CC(=O)N3CCC(Oc4ccc(C#N)cc4)CC3)cc2)CCN1, the EC50 is reported as 12.6 nM.
